Measurements from a melting point compilation (Tetko et al.; mined from patent text by program, amines drawn as free bases though some values may be those of a salt).
Non-standard residues stand in square brackets, D forms with d. Residues, ends and D or L forms follow the SMILES beside them. ξ: configuration not given here. *: point of attachment. Boc = CC(C)(C)OC(=O)*; ξA = CC(N)C(=O)O; NHNH2 = NN*

With `CCOc1c(C)c(C)c2c(c1C)CCC(C)(COc1ccc(N)cc1)O2` (stereo not drawn) the melting point was 121 to 123 °C. For `CC(C)(C)CC(C)(C)c1cc(-c2cc(C(C)(C)CC(C)(C)C)cc(-n3nc4ccccc4n3)c2O)c(O)c(-n2nc3ccccc3n2)c1`, the melting point was 209 to 211 °C. In the case of `CCSc1cc(=O)c2c(O)cc(O)c([C@H]3CCN(C)C[C@H]3O)c2o1` (relative stereo), the melting point is reported as 104 °C. In the case of `CCOC(=O)c1ccc(NC(=O)C=C(C)c2ccc(Cl)cc2)cc1`, the melting point is reported as 150 to 152 °C. Work on `CNC(=O)c1cnn(C)c1C(=O)Nc1ccn2nc(-c3ccccc3)nc2c1` yielded a melting point of over 250 °C. With `CC(C)Oc1ccnc2[nH]cc(-c3ccnc(N)n3)c12` the melting point was over 210 °C. `CN(CCCCCCO)c1ccc(N=Nc2ccc(S(C)(=O)=O)cc2)cc1` showed a melting point of 114 to 116 °C. `Cc1c(Nc2c(C#N)cncc2-c2cc3cc(CN4CCCCC4)ccc3s2)ccc2[nH]ccc12` showed a melting point of 174 to 175 °C. `COc1ccc(COc2cccc3cc(NS(=O)(=O)C(F)(F)F)ccc23)cc1Cl` showed a melting point of 129 to 130 °C. Work on `FC(F)(F)c1ccccc1NCC1=NNCCN1` yielded a melting point of 97 to 98 °C. `Cc1c(-c2ccc(F)cc2)nnn1CCC#Cc1ccccn1` gave a melting point of 130 to 131 °C. Compound `N#CCCN(C=O)CC(=O)O` has a melting point of 112 to 114 °C. `CC(C)C(CN1CCC(Nc2nc3ccccc3n2-c2cccc3c2NCCC3)CC1)NCc1ccccc1` (stereo not drawn) showed a melting point of 126 °C. `O=C(c1nn(-c2ccc(F)cc2F)c2c1C1CCC2C1)N1CCc2ccccc2C1` (stereo not drawn) gave a melting point of 134 to 138 °C. With `CC(c1ccccc1N1CCCC1)C(C(N)=O)c1ccc(C(=O)O)cc1` (stereo not drawn) the melting point was 155 to 157 °C. With `Cc1cc(CCc2cc(C)c(O)c(C)c2Br)c(Br)c(C)c1O` the melting point was 191 to 194 °C. `Oc1cccc(CCCCn2ccnc2)c1` gave a melting point of 133 to 134 °C. Work on `COc1cc2cc3c(=O)c(C#N)c[nH]c3cc2cc1OCc1ccccc1` yielded a melting point of over 300 °C. `Cc1ccc(S(=O)(=O)Nc2ccc(-c3ccc(S(=O)(=O)n4ccc(C=CC(=O)NO)c4)cc3)cc2)cc1` showed a melting point of 119 to 126 °C. For `N=C(N)c1ccc(NC(C(=O)O)c2ccccc2OCC(=O)O)cc1` (racemic), the melting point was 223 °C. `C=CCc1c(OCc2ccccc2)ccc2c(=O)ccoc12` showed a melting point of 90 to 92 °C. `Cn1nc(N2c3ccccc3C[C@H]2C(=O)N2CCCC(C)(C)C2)ccc1=O` gave a melting point of 125 to 129 °C. In the case of `CCOC(=O)C(C#N)=Cc1c(Cl)n(C)c2ccccc12`, the melting point is reported as 131 to 132 °C. Compound `CC1(C)CCC(C)(C)c2cc3cc(-c4ccc(C(=O)O)o4)ccc3cc21` has a melting point of 229 to 230 °C. Compound `CCCC(=O)c1ccc(OCC(=O)OC)cc1` has a melting point of 78 to 82 °C. `O=C1NCCCCC1Cc1ccccc1` (stereo not drawn) gave a melting point of 99 to 104 °C. With `CCOC(=O)CC(NS(=O)(=O)c1cccc(-c2cccc(NC(=NC#N)NCc3ccccn3)c2)c1)c1ccccc1` (stereo not drawn) the melting point was 82 °C. For `CS(=O)(=O)c1ccc2c([N+](=O)[O-])cc3c(c2c1)C(CCl)CN3` (stereo not drawn), the melting point was 193 to 194 °C. In the case of `COc1ccccc1OCCCc1oc(-n2ccnc2C)nc1-c1ccc(Cl)cc1`, the melting point is reported as 84 to 85 °C. In the case of `c1ccc2c(c1)SCCc1c-2n(Cc2ccc(OCCCN3CCCCC3)cc2)c2ccccc12`, the melting point is reported as 70 to 71 °C. Compound `CCNC(=N)Nc1nc2ccc(OC(F)(F)F)cc2s1` has a melting point of 127 to 129 °C. With `CC(C1OCCO1)N(C)C(=O)Nc1nnc(S(=O)(=O)N(C)C)s1` (stereo not drawn) the melting point was 194 to 196 °C. Compound `CC(C)CC(C(=O)OCc1ccccc1)N1C(=O)C2(CCCN2C(=O)OC(C)(C)C)CC1O` (mixture of isomers) has a melting point of 134 to 135 °C. In the case of `CCCCCCCCCCCCOc1ccc(-c2cc3ccccc3[nH]2)cc1`, the melting point is reported as 204 °C. With `COc1cc(/C(C#N)=C\c2ccc(C)c(N)c2)cc(OC)c1OC` the melting point was 161 to 162 °C. Compound `C#Cc1ccc([C@H]2CC[C@H](CCCCC)CC2)nn1` has a melting point of 114 to 116 °C. `O=[N+]([O-])c1ccc(Br)cc1-c1cc(-c2cccc(Br)c2)no1` gave a melting point of 179 to 180 °C. In the case of `CS(=O)(=O)OCCN1c2ccccc2Oc2ccccc21`, the melting point is reported as 81 to 83 °C. `COc1ccc(C#N)c(F)c1O` gave a melting point of 198 to 200 °C. Work on `O=C1CCCC2=C1C(c1cccc(C(F)(F)F)c1)C1=C(CCCC1)N2` (stereo not drawn) yielded a melting point of 250 to 251 °C. Compound `Cn1c(C(F)(F)F)cc(=O)n(-c2c(F)cc(Cl)c3nc(C(Br)Br)oc23)c1=O` has a melting point of 144 to 146 °C. In the case of `CCCc1nc2sc3c(NCc4cccnc4)ncnc3c2c2c1COC(C)(C)C2`, the melting point is reported as 259 to 260 °C. In the case of `Nc1ccc2nc(N3CCOCC3)nn2c1`, the melting point is reported as 165 °C. `Cc1c(C#N)ccc(Cl)c1Cl` gave a melting point of 78 to 79 °C. For `COc1ccc(CNCC(O)c2ccccc2)cc1OC` (stereo not drawn), the melting point was 93 to 94 °C. Compound `CC#Cc1ccc(NC(=O)c2ccccc2NCc2ccncc2)cc1C(F)(F)F` has a melting point of 165 to 166 °C. `CCCc1nn(CC)c(CO)c1Cc1ccc(-c2ccccc2NS(=O)(=O)C(F)(F)F)cc1` showed a melting point of 59 to 64 °C. `O=c1c2c(nc3c(OCc4ccccc4)cccn13)CCC2` gave a melting point of 150 to 152 °C. For `OCc1cccc2c1CCCN2`, the melting point was 120 to 122 °C. `Cc1nc(-n2cc(CCCc3ccccc3)nn2)sc1C(=O)NCc1ccccc1` gave a melting point of 94 to 97 °C. `Cc1ccc(C)n1Nc1ccc(N2CC(C)OC(C)C2)nn1` (stereo not drawn) showed a melting point of 147 to 148 °C. `COc1cc(C(C)C)c(NC(=O)CN2CCN(CCSc3nc4ccccc4o3)CC2)c(C(C)C)c1` gave a melting point of 115 to 117 °C. In the case of `CCCC[C@H](CN(C=O)OCc1ccccc1)C(=O)N1CCC[C@H]1C(=O)Nc1ccc(F)cn1`, the melting point is reported as 98 °C. `CNS(=O)(=O)c1cc(-c2ccc(C(F)(F)F)n(C)c2=O)c(F)cc1Cl` gave a melting point of 150 to 151 °C. With `CC(C)C1NC(=O)CN1C(=O)C(Cl)Cl` (stereo not drawn) the melting point was 172 to 173 °C. In the case of `COc1ccc2c(c1)c(SC)c(C(=O)O)n2C`, the melting point is reported as 165 °C. Work on `CC(C)(C)c1ccc(CC[C@@H](N)[C@H](O)c2ccc(F)cc2)cc1` (racemic) yielded a melting point of 139 to 140 °C. Compound `C(=C\c1cccs1)/c1ncon1` has a melting point of 78 °C. `Cc1nc(C)nc(-c2cccc(-c3ccccc3C)n2)n1` gave a melting point of 86.8 °C. `Cc1c(C(F)(F)F)ncn(-c2c(Cl)cc(C(F)(F)F)cc2C#N)c1=O` gave a melting point of 154 to 155 °C. Compound `COc1ccc(C(=O)Nc2ccc(C(=O)c3ccccc3)cc2)cc1` has a melting point of 171 to 174 °C. With `CCOC(=O)Cc1cccc(Cn2ccc(OCc3ccc(F)cc3F)c(Br)c2=O)c1` the melting point was 95 to 98 °C. `CN(CCOc1ccc(CC(F)C(=O)O)cc1)c1nc2ccccc2o1` (stereo not drawn) gave a melting point of 146 to 148 °C. For `Cc1cc(-c2oncc2CCC(=O)O)ccc1Cl`, the melting point was 158 to 159 °C. For `CC(NC(=O)CNC(=O)CNC(=O)CNC(=O)OC(C)(C)C)C(=O)NCC(=O)NN` (stereo not drawn) (Boc-GGG[ξA]G-NHNH2), the melting point was 221 to 223 °C. With `Cc1ccnc(N2CCN(CCC3Cn4c(-c5ccc(O)cc5)c(C)c5cccc(c54)O3)CC2)c1` (stereo not drawn) the melting point was 213 to 214 °C. For `CN1CC=C(c2c[nH]c3ccc(NC(=N)c4ccco4)cc23)CC1`, the melting point was 212 to 215 °C. Work on `CN1CC(CCn2cccn2)Oc2ncccc2C1=O` (stereo not drawn) yielded a melting point of 132 to 134 °C. `O=C(Nc1ccc2cc(CN3CCCC3)ccc2c1)c1ccc(-c2ccc(Cl)cc2)nc1` gave a melting point of 270 to 274 °C. For `CC(=O)Oc1cc(N2C(=O)C=CC2=O)ccc1C(=O)O`, the melting point was 110 to 119 °C. Work on `O=Cc1ccn2c1CCC2` yielded a melting point of 58 °C. `COc1ccc(Oc2cccc(C3C4=C(CC(C)(C)CC4=O)NC4=C3C(=O)CC(C)(C)C4)c2)cc1` showed a melting point of 210 to 212 °C. In the case of `COc1ccc2c(c1OC)CN(Cc1ccccc1)CCc1cc3c(cc1CC2)OCO3`, the melting point is reported as 75 to 78 °C. Work on `CC(C)(C)OC(=O)NC1(CCO)CC1` yielded a melting point of 93 to 95 °C. In the case of `C=C(C)C(=O)Oc1ccc(S(=O)(=O)Nc2ccccc2)cc1`, the melting point is reported as 101 to 102 °C. In the case of `CC(C)[C@H](CCC(=O)OCc1ccccc1)NC(=O)OC(C)(C)C`, the melting point is reported as 94 to 96 °C. Work on `Cc1ccc(-c2ccccc2-c2nn[nH]c2C#N)cc1` yielded a melting point of 170 to 172 °C. Compound `O=C(O)c1cn(Cc2ccc(OCc3csc(-c4ccccc4)n3)cc2)nc1-c1cccs1` has a melting point of 187 to 188 °C. `CCCCCc1ccc(C(=O)CCCCC(=O)O)cc1` showed a melting point of 84 to 86 °C. `Cc1nc(NCc2ccccn2)[nH]c(=O)c1CCO` gave a melting point of 185 °C. `CCc1ccc2oc(C(=O)Nc3ccc(-c4ccc(S(=O)(=O)NC(C(=O)O)C(C)C)cc4)cc3)c(C)c2c1OCc1ccccc1` (stereo not drawn) showed a melting point of 224 to 226 °C. Work on `CCONCCCC=C1C(=O)CC(c2ccc(Cl)cc2)CC1=O` (stereo not drawn) yielded a melting point of 77 °C. Compound `CCCCCCCN(Cc1ccc(C(C)(C)C)cc1)C(Nc1ccc(Cl)cc1)=C1C(=O)COC1=O` has a melting point of 101 to 104 °C. For `C#Cc1ncn2c1[C@@H]1CCCN1C(=O)c1c(Cl)cccc1-2`, the melting point was 324 to 325 °C. For `Cc1ccc(-c2ccc(-c3ccccc3)cc2)n1CC[C@H]1C[C@H](O)CC(=O)O1` (relative stereo), the melting point was 104 to 107 °C. `CN(C)CCNc1nc(C2C(=O)Nc3ccc(Br)cc32)c2cn(C)nc2n1` (stereo not drawn) gave a melting point of 279 to 289 °C. `COc1ncnc(OC)c1N(C(=O)CCl)C(C)n1cccn1` (stereo not drawn) showed a melting point of 124 to 126 °C. In the case of `NC[C@@H]1CN(c2nc3c(cc2F)c(=O)c(C(=O)O)cn3C2CC2)C[C@@H]1F` (relative stereo), the melting point is reported as 217 to 218 °C. For `CC(=O)N1C(C)(C)CC(Oc2nc(Cl)nc(N3C(C)(C)CCCC3(C)C)n2)CC1(C)C`, the melting point was 114 to 116 °C. Compound `COC(=O)C1=C(C)NC(C)=C(C(=O)OCCN2CCN(S(=O)(=O)c3ccc(Cl)cc3)CC2)C1c1cccc([N+](=O)[O-])c1` (stereo not drawn) has a melting point of 97 to 105 °C. With `FC(F)(F)C1(c2cc(Cl)cc(Cl)c2)CC(c2ccc(Br)nc2)=NO1` (stereo not drawn) the melting point was 147 to 148 °C. With `CC(C)(C)c1cc2c(c(C(C)(C)C)c1O)CC1(CCSCC1)O2` the melting point was 209 °C. `O=c1[nH]c(=Cc2ccc(OCc3ccccc3)cn2)c(=O)[nH]c1=Cc1ccc(Cl)c(Cl)c1` gave a melting point of 264 to 265 °C. `Cc1ccc(S(=O)(=O)OCC2COc3cccc4[nH]c(=O)n2c34)cc1` (stereo not drawn) showed a melting point of 140 to 142 °C. For `COc1ccc(C(=NO)c2ccc(Cl)cc2)c(O)c1`, the melting point was 159 °C. `CS(=O)(=O)c1ccc(C(CC2CCCC2)C(=O)Nc2ccc(Br)cn2)cc1[N+](=O)[O-]` (stereo not drawn) showed a melting point of 80 to 83 °C. Work on `COc1cc(Nc2nccc(-c3ccc([N+](=O)[O-])s3)n2)cc(OC)c1OC` yielded a melting point of 182 to 183 °C. In the case of `CC(C)(COc1ccc([N+](=O)[O-])cc1)N1CC(COc2cccc(Cl)c2)OC1=O` (stereo not drawn), the melting point is reported as 108 to 112 °C.
